According to the NIST ThermoML archive (doi:10.1021/je500936y):

Key:
[1] = xn = mol fraction of the nth substance listed; details: 100 kPa, Liquid; for speed of sound: Frequency=3 MHz, Sing-around technique in a fixed-path interferometer; for mass density: Vibrating tube method
[2] = refractive index (Na D-line) (dimensionless); xn = mol fraction of the nth substance listed; details: 100 kPa, Liquid, Standard Abbe refractometry

C=CN1CCCC1=O [N-vinylpyrrolidone] + CCCCn1cc[n+](C)c1.F[B-](F)(F)F
Details | mass density, [1] [kg/m3] | refractive index, [2] | speed of sound, [1] [m/s]
298.15 K, x2 = 0 | – | 1.51119 | –
298.15 K, x2 = 0.1046 | – | 1.4987 | –
298.15 K, x2 = 0.2035 | – | 1.48698 | –
298.15 K, x2 = 0.3042 | – | 1.47636 | –
298.15 K, x2 = 0.406 | – | 1.46672 | –
298.15 K, x2 = 0.4945 | – | 1.45868 | –
298.15 K, x2 = 0.607 | – | 1.44913 | –
298.15 K, x2 = 0.697 | – | 1.44241 | –
298.15 K, x2 = 0.9104 | – | 1.42725 | –
303.15 K, x2 = 0 | – | 1.50886 | –
303.15 K, x2 = 0.1046 | – | 1.49659 | –
303.15 K, x2 = 0.2035 | – | 1.48494 | –
303.15 K, x2 = 0.3042 | – | 1.4745 | –
303.15 K, x2 = 0.406 | – | 1.4648 | –
303.15 K, x2 = 0.4945 | – | 1.45699 | –
303.15 K, x2 = 0.607 | – | 1.44651 | –
303.15 K, x2 = 0.697 | – | 1.44097 | –
303.15 K, x2 = 0.7828 | – | 1.43197 | –
303.15 K, x2 = 0.9104 | – | 1.42592 | –
308.15 K, x2 = 0 | – | 1.5065 | –
308.15 K, x2 = 0.1046 | – | 1.49444 | –
308.15 K, x2 = 0.2035 | – | 1.48295 | –
308.15 K, x2 = 0.3042 | – | 1.47251 | –
308.15 K, x2 = 0.406 | – | 1.46308 | –
308.15 K, x2 = 0.4945 | – | 1.45534 | –
308.15 K, x2 = 0.607 | – | 1.44502 | –
308.15 K, x2 = 0.697 | – | 1.43944 | –
308.15 K, x2 = 0.7828 | – | 1.43065 | –
308.15 K, x2 = 0.9104 | – | 1.42459 | –
313.15 K, x2 = 0 | – | 1.50415 | –
313.15 K, x2 = 0.1046 | – | 1.49224 | –
313.15 K, x2 = 0.2035 | – | 1.48108 | –
313.15 K, x2 = 0.3042 | – | 1.47065 | –
313.15 K, x2 = 0.406 | – | 1.46137 | –
313.15 K, x2 = 0.4945 | – | 1.45369 | –
313.15 K, x2 = 0.607 | – | 1.44349 | –
313.15 K, x2 = 0.697 | – | 1.43784 | –
313.15 K, x2 = 0.7828 | – | 1.42937 | –
313.15 K, x2 = 0.9104 | – | 1.42327 | –
318.15 K, x2 = 0 | 1021.73 | 1.50181 | –
318.15 K, x2 = 0.1046 | 1053.13 | 1.49001 | –
318.15 K, x2 = 0.2035 | 1076.75 | 1.47899 | –
318.15 K, x2 = 0.3042 | 1097.59 | 1.46886 | –
318.15 K, x2 = 0.406 | 1115.44 | 1.45957 | –
318.15 K, x2 = 0.4945 | 1128.96 | 1.45198 | –
318.15 K, x2 = 0.607 | 1144.25 | 1.44199 | –
318.15 K, x2 = 0.697 | 1155.36 | 1.43632 | –
318.15 K, x2 = 0.7828 | 1165.3 | 1.42834 | –
318.15 K, x2 = 0.9104 | 1177.29 | 1.42194 | 1518.3
323.15 K, x2 = 0 | 1017.33 | 1.49948 | 1428.1
323.15 K, x2 = 0.1046 | 1048.93 | 1.4878 | 1450.6
323.15 K, x2 = 0.2035 | 1072.68 | 1.47691 | 1464.1
323.15 K, x2 = 0.3042 | 1093.63 | 1.46692 | 1475.1
323.15 K, x2 = 0.406 | 1111.58 | 1.45773 | 1483.9
323.15 K, x2 = 0.4945 | 1125.2 | 1.45015 | 1489.9
323.15 K, x2 = 0.607 | 1140.57 | 1.44042 | 1495.7
323.15 K, x2 = 0.697 | 1151.73 | 1.43462 | 1499.8
323.15 K, x2 = 0.7828 | 1161.76 | 1.42708 | 1503.5
323.15 K, x2 = 0.9104 | 1173.77 | 1.42061 | 1506.7
